Data on 22 molecules can be found in patent US8865734B2 (priority 2010, dated 2014).

Molecules are shown by their SMILES. ≈ marks a conversion by molar mass, not a printed value.

For assay [1], the system named is M. tuberculosis inside the host macrophage. The assay can be described thus: QIM: Quantification of Intracellular Mycobacteria (intracellular growth assay, phenotypic cell-based). The following applies: MIC, 80% bacterial growth inhibition, intracellular growth; for MIC: Mycobacterium tuberculosis, read-out: QIM. An outline of the steps: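 Dose-response testing of intracellular mycobacterial replication in infected macrophages, a cell-based screening format; MIC is defined as the lowest concentration achieving 80% inhibition of bacterial growth.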

Assay [2] has as its system in vitro grown Mycobacteria (M. tuberculosis). The assay can be described thus: QUM: Quantification of in vitro grown Mycobacteria (in vitro growth fluorescence assay). The format is cell-based. To be noted: MIC, 80% bacterial growth inhibition, in vitro growth; for MIC: Mycobacterium tuberculosis, read-out: QUM. An outline of the steps:
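Mycobacterium tuberculosis grown in vitro was quantified by fluorescence across compound dose responses. MIC is defined as the minimum concentration producing 80% growth inhibition.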

For the molecule `CCc1nc2cc(Cl)ccn2c1C(=O)NCc1ccc2[nH]c(CN3CCOCC3)nc2c1` [Compound 206, 7-Chloro-2-ethyl-N-((2-(morpholinomethyl)-1H-benzo[d]imidazol-5-yl)methyl) imidazo[1,2-a]pyridine-3-carboxamide], the MIC in assay [1] and in assay [2] was above 20 µM in each case.

As to `CCc1nc2ccc(Cl)cn2c1C(=O)NCc1ccc2oc(-c3ccc(OC(F)(F)F)cc3)nc2c1` [Compound 207, 6-Chloro-2-ethyl-N-((2-(4-(trifluoromethoxy)phenyl)benzo[d]oxazol-5-yl)methyl)imidazo[1,2-a]pyridine-3-carboxamide], the MIC in assay [1] and in assay [2] was below 1 µM throughout.

Turning to `CCc1nc2cc(Cl)ccn2c1C(=O)NCc1ccc2oc(-c3ccc(OC(F)(F)F)cc3)nc2c1` [Compound 208, 7-Chloro-2-ethyl-N-((2-(4-(trifluoromethoxy)phenyl)benzo[d]oxazol-5-yl)methyl)imidazo[1,2-a]pyridine-3-carboxamide], the MIC in assay [1] and in assay [2] was below 1 µM each time.

For the molecule `CCc1nc2cc(Cl)ccn2c1C(=O)NCc1ccc(N2CCCC2)cc1` [Compound 212, 7-Chloro-2-ethyl-N-(4-(pyrrolidin-1-yl)benzyl)imidazo[1,2-a]pyridine-3-carboxamide], the MIC in assay [1] and in assay [2] was below 1 µM in each case.

As for `CCc1nc2cc(Cl)ccn2c1C(=O)NCc1ccc(N2CC=CCC2)cc1` [Compound 213, 7-Chloro-N-(4-(5,6-dihydropyridin-1(2H)-yl)benzyl)-2-ethylimidazo[1,2-a]pyridine-3-carboxamide], the MIC in assay [1] was 1 to 20 µM (≈ 0.395 to 7.9 µg/mL); in assay [2], below 1 µM.

Regarding `CCc1nc2ccc(Cl)cn2c1C(=O)NCc1ccc(N2CCC(C)CC2)cc1` [Compound 214, 6-Chloro-2-ethyl-N-(4-(4-methylpiperidin-1-yl)benzyl)imidazo[1,2-a]pyridine-3-carboxamide], the MIC in assay [1] and in assay [2] was below 1 µM in each case.

As for `CCc1nc2cc(Cl)ccn2c1C(=O)NCc1ccc(N2CCC(C)CC2)cc1` [Compound 215, 7-Chloro-2-ethyl-N-(4-(4-methylpiperidin-1-yl)benzyl)imidazo[1,2-a]pyridine-3-carboxamide], the MIC in assay [1] and in assay [2] was below 1 µM throughout.

Turning to `CCc1nc2ccc(Cl)cn2c1C(=O)NCc1ccc(N2CCCCCC2)cc1` [Compound 221, N-(4-(Azepan-1-yl)benzyl)-6-chloro-2-ethylimidazo[1,2-a]pyridine-3-carboxamide], the MIC in assay [1] and in assay [2] was below 1 µM throughout.

On to `CCc1nc2cc(Cl)ccn2c1C(=O)NCc1ccc(N2CCCCCC2)cc1` [Compound 222, N-(4-(Azepan-1-yl)benzyl)-7-chloro-2-ethylimidazo[1,2-a]pyridine-3-carboxamide], for which the MIC in assay [1] and in assay [2] was below 1 µM each time.

As for `CCc1nc2ccc(Cl)cn2c1C(=O)N1CCC(OCc2ccc(OC(F)(F)F)cc2)CC1` [Compound 230, (6-Chloro-2-ethylimidazo[1,2-a]pyridin-3-yl)(4-(4-(trifluoromethoxy)benzyloxy)piperidin-1-yl)methanone], the MIC in assay [1] and in assay [2] was above 20 µM in each case.

As to `CCc1nc2ccc(Cl)cn2c1C(=O)NCc1ccn(-c2ccc(OC(F)(F)F)cc2)n1` [Compound 231, 6-Chloro-2-ethyl-N-((1-(4-(trifluoromethoxy)phenyl)-1H-pyrazol-3-yl)methyl) imidazo[1,2-a]pyridine-3-carboxamide], the MIC in assay [1] and in assay [2] was below 1 µM each time.

With `CCc1nc2cc(Cl)ccn2c1C(=O)NCc1ccn(-c2ccc(OC(F)(F)F)cc2)n1` [Compound 232, 7-Chloro-2-ethyl-N-((1-(4-(trifluoromethoxy)phenyl)-1H-pyrazol-3-yl)methyl) imidazo[1,2-a]pyridine-3-carboxamide], the “QIM (μM)” value in assay [1] is “++ (++ indicates between 1-20 uM)”. Besides, the “QUM (μM)” value in assay [2] is on record as “++ (++ indicates between 1-20 uM)”.

With `CCc1nc2ccc(Cl)cn2c1C(=O)NCc1ccn(-c2ccc(C(F)(F)F)cc2)n1` [Compound 233, 6-Chloro-2-ethyl-N-4-((1-(4-(trifluoromethyl)phenyl)-1H-pyrazol-3-yl)methyl)imidazo[1,2-a]pyridine-3-carboxamide], the MIC in assay [1] and in assay [2] was above 20 µM each time.

`CCc1nc2cc(Cl)ccn2c1C(=O)NCc1ccn(-c2ccc(C(F)(F)F)cc2)n1` [Compound 234, 7-Chloro-2-ethyl-N-((1-(4-(trifluoromethyl)phenyl)-1H-pyrazol-3-yl)methyl)imidazo[1,2-a]pyridine-3-carboxamide]: the MIC in assay [1] and in assay [2] was 1 to 20 µM (≈ 0.448 to 8.96 µg/mL) each time.

`CCc1nc2ccc(Cl)cn2c1C(=O)NCc1ccn(-c2ccc(F)cc2)n1` [Compound 235, 6-Chloro-2-ethyl-N-((1-(4-fluorophenyl)-1H-pyrazol-3-yl)methyl)imidazo[1,2-a]pyridine-3-carboxamide]: the MIC in assay [1] and in assay [2] was 1 to 20 µM (≈ 0.398 to 7.96 µg/mL) in each case.

Consider `CCc1nc2cc(Cl)ccn2c1C(=O)NCc1ccn(-c2ccc(F)cc2)n1` [Compound 236, 7-Chloro-2-ethyl-N-((1-(4-fluorophenyl)-1H-pyrazol-3-yl)methyl)imidazo[1,2-a]pyridine-3-carboxamide], for which the MIC in assay [1] is above 20 µM; in assay [2], 1 to 20 µM (≈ 0.398 to 7.96 µg/mL).

As for `CCc1nc2ccc(Cl)cn2c1C(=O)NCC1CCCc2c1cnn2-c1ccc(OC(F)(F)F)cc1` (centres unmarked) [Compound 237, 6-Chloro-2-ethyl-N-((1-(4-(trifluoromethoxy)phenyl)-4,5,6,7-tetrahydro-1,1-indazol-4-yl)methyl)imidazo[1,2-a]pyridine-3-carboxamide], the MIC in assay [1] and in assay [2] was above 20 µM in each case.

Take `CCc1nc2ccc(Cl)cn2c1C(=O)NCC1CCCc2c1cnn2-c1ccc(F)cc1` (centres unmarked) [Compound 238, 6-Chloro-2-ethyl-N-((1-(4-fluorophenyl)-4,5,6,7-tetrahydro-1H-indazol-4-yl)methyl) imidazo[1,2-a]pyridine-3-carboxamide]: the MIC in assay [1] and in assay [2] was above 20 µM throughout.

On to `CCc1nc2ccc(Cl)cn2c1CNc1ccc(OC(F)(F)F)cc1` [Compound 240, N-((6-Chloro-2-ethylimidazo[1,2-a]pyridin-3-yl)methyl)-4-(trifluoromethoxy)aniline], for which the MIC in assay [1] and in assay [2] was above 20 µM throughout.

As to `CCc1nc2cc(Cl)ccn2c1-c1nnc(CN2CCN(c3ccc(OC(F)(F)F)cc3)CC2)o1` [Compound 244, 2-(7-Chloro-2-ethylimidazo[1,2-a]pyridin-3-yl)-5-((4-(4-(trifluoromethoxy)phenyl)piperazin-1-yl)methyl)-1,3,4-oxadiazole], the MIC in assay [1] and in assay [2] was 1 to 20 µM (≈ 0.507 to 10.1 µg/mL) in each case.

For the molecule `CCc1nc2ccc(F)cn2c1C(=O)NCc1ccc(OCc2ccc(OC(F)(F)F)cc2)cc1` [Compound 258, 2-Ethyl-6-fluoro-N-(4-(4-(trifluoromethoxy)benzyloxy)benzyl)imidazo[1,2-a]pyridine-3-carboxamide], the MIC in assay [1] and in assay [2] was below 1 µM in each case.

As to `CCc1nc2ccccn2c1C(=O)NCc1ccc(N(C)Cc2ccc(OC(F)(F)F)cc2)cc1` [Compound 263, 2-Ethyl-N-(4-(methyl(4-(trifluoromethoxy)benzyl)amino)benzyl)imidazo[1,2-a]pyridine-3-carboxamide], the MIC in assay [1] and in assay [2] was below 1 µM throughout.
